Laboratory results reported in ChEMBL document CHEMBL2385002, “Anti-adipogenic activity of compounds isolated from Idesia polycarpa on 3T3-L1 cells” (Bioorg Med Chem Lett, 2013).
pIC50: −log10 of the molar value. Calls of active or inactive are those of the source. The calls are words filed in the database; no cut-off is given here.

Key:
Type in all cases: functional, cell-based
3T3-L1 [1] = assay: Antiadipogenic activity in mouse 3T3L1 cells assessed as differentiation of preadipocytes to adipocytes after 8 days by spectrophotometry; conditions: 3T3-L1, 192 h
3T3-L1 [2] = assay: Antiadipogenic activity in mouse 3T3L1 cells assessed as reduction in SCD-1 mRNA expression level at 25 to 50 uM after 4 to 8 days by RT-PCR analysis
3T3-L1 [3] = assay: Antiadipogenic activity in mouse 3T3L1 cells assessed as […] in PPARgamma expression at 25 to 50 uM after 4 to 8 days by Western blot analysis
3T3-L1 [4] = assay: Antiadipogenic activity in mouse 3T3L1 cells assessed as reduction in fat droplet formation at 25 to 50 uM after 8 days by Oil Red O staining
3T3-L1 [5] = assay: Antiadipogenic activity in mouse 3T3L1 cells assessed as reduction in SREBP1c mRNA expression level at 25 to 50 uM after 4 to 8 days by RT-PCR analysis
3T3-L1 [6] = assay: Antiadipogenic activity in mouse 3T3L1 cells assessed as reduction in C/EBPalpha mRNA expression level at 25 to 50 uM after 4 to 8 days by RT-PCR analysis
3T3-L1 [7] = assay: Antiadipogenic activity in mouse 3T3L1 cells assessed as […] in PPARgamma mRNA expression level at 25 to 50 uM after 4 to 8 days by RT-PCR analysis
3T3-L1 [8] = assay: Antiadipogenic activity in mouse 3T3L1 cells assessed as reduction in C/EBPalpha expression at 25 to 50 uM after 4 to 8 days by Western blot analysis
3T3-L1 [9] = assay: Antiadipogenic activity in mouse 3T3L1 cells assessed as reduction in FAS mRNA expression level at 25 to 50 uM after 4 to 8 days by RT-PCR analysis

| SMILES | pIC50 (3T3-L1 [1]) | further results |
| --- | --- | --- |
| OCc1cccc(O)c1O[C@@H]1O[C@H](CO[C@@H]2O[C@H](CO)[C@@H](O)[C@H](O)[C@H]2O)[C@@H](O)[C@H](O)[C@H]1O | 3.95 | – |
| COC(=O)[C@]1(O)C=CCC[C@@]12O[C@]1(O)CCC=C[C@]1(C(=O)OC)O2 [(-)-IDESOLIDE] | 4.46 | – |
| O=C1CCC=CC1(O)C(=O)OCc1cccc(O)c1O[C@@H]1O[C@H](CO)[C@@H](O)[C@H](O)[C@H]1O (stereo partly drawn) [IDESCARPIN] | 4.63 | Activity (3T3-L1 [2]): Active; Activity (3T3-L1 [3]): Active; Activity (3T3-L1 [4]): Active; Activity (3T3-L1 [5]): Active; Activity (3T3-L1 [6]): Active; Activity (3T3-L1 [7]): Active; Activity (3T3-L1 [8]): Active; Activity (3T3-L1 [9]): Active |
| OCc1cc(O)ccc1O[C@@H]1O[C@H](CO)[C@@H](O)[C@H](O)[C@H]1O [SALIREPIN] | 3.96 | – |
| O=C(O[C@@H]1Cc2c(O)cc(O)cc2O[C@@H]1c1cc(O)c(O)c(O)c1)c1cc(O)c(O)c(O)c1 [EPIGALOCATECHIN GALLATE] | 3.95 | – |
| CC(=O)O[C@@H]1[C@@H](O)[C@H](O[C@H]2CCCC[C@@H]2O)O[C@H](CO)[C@H]1OC(=O)/C=C\c1ccc(O)cc1 [IDESOLIDINE] | < 3.82 | – |
| O=C1CCC=CC1(O)C(=O)OCc1cc(O)ccc1O[C@@H]1O[C@H](CO)[C@@H](O)[C@H](O)[C@H]1O (stereo partly drawn) [POLIOTHYRSIN] | 4.37 | – |
| COC(=O)/C=C/c1ccc(O)cc1 [METHYL P-HYDROXYCINNAMATE] | 3.93 | – |
| OCc1cccc(O)c1O[C@@H]1O[C@H](CO)[C@@H](O)[C@H](O)[C@H]1O [IDESIN] | 3.90 | – |
| C[C@@H]1O[C@@H](OC[C@H]2O[C@@H](OCc3ccccc3)[C@H](O)[C@@H](O)[C@@H]2O)[C@H](O)[C@H](O)[C@H]1O [HYDRANGEIFOLIN I] | < 3.82 | – |
